Results reported in PMC2642990, “The Glycogen-Binding Domain on the AMPK β Subunit Allows the Kinase to Act as a Glycogen Sensor” (Cell Metabolism, 2009).

Target: T1, recombinant α1β1γ1 complex with β1 GBD mutations (W100G/W133A and others) (Rattus norvegicus, UniProt P80386, W100G/W133A)
T1 construct: we made mutations in full-length β1 coexpressed with α1 and γ1 in CCL13 cells; made in house; host or cells: human CCL13 cells, co-transfected; isolated by anti-myc immunoprecipitation
Assay: recombinant AMPK with GBD point mutations in β1, assayed in immunoprecipitates
Assay type: biochemical
Details: 20 mM; Figure 5D
Text: To test whether mutations that interfered with the binding of glycogen to the GBD also affected inhibition of AMPK by glycogen, we made mutations in full-length β1 coexpressed with α1 and γ1 in CCL13 cells, isolated the complex by immunoprecipitation via the myc tag on α1, and assayed the kinase activity in the presence and absence of glycogen. The activities were adjusted to correct for slight variation in recovery of the α1 subunit assessed by blotting (inset in Figure 3A). […] Because all of these assays were conducted in resuspended immunoprecipitates, the degree of inhibition of the wild-type was < 50%, as discussed in the previous section. […]
Figure 3 Effect of β Subunit Mutations on Inhibition of Recombinant AMPK Complexes by Glycogen (A) Myc-α1, γ1, and β1 with the wild-type sequence or the indicated mutations were expressed in CCL13 cells, immunoprecipitated, and assayed ± bovine liver glycogen (200 mM glucose equivalents); results are mean ± SEM (n = 3). […] (C) Myc-α1, γ1, and β1 with the wild-type sequence or with W100G/W133A mutations were expressed in CCL13 cells, immunoprecipitated using anti-myc (left) or anti-FLAG (right) antibodies, and analyzed by western blotting using anti-myc antibodies (top panels) or a mixture of anti-β1 and -γ1 antibodies (bottom panels). […]

T1 sequence (P80386 2-270 W100G/W133A): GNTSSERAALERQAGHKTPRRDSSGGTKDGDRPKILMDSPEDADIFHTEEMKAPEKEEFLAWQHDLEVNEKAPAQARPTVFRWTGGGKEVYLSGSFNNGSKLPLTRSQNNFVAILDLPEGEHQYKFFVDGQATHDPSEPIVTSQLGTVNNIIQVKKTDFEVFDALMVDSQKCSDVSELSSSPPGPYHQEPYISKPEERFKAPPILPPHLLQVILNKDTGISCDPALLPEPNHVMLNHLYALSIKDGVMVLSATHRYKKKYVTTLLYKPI
T1 sequence (P54645 whole entry partner): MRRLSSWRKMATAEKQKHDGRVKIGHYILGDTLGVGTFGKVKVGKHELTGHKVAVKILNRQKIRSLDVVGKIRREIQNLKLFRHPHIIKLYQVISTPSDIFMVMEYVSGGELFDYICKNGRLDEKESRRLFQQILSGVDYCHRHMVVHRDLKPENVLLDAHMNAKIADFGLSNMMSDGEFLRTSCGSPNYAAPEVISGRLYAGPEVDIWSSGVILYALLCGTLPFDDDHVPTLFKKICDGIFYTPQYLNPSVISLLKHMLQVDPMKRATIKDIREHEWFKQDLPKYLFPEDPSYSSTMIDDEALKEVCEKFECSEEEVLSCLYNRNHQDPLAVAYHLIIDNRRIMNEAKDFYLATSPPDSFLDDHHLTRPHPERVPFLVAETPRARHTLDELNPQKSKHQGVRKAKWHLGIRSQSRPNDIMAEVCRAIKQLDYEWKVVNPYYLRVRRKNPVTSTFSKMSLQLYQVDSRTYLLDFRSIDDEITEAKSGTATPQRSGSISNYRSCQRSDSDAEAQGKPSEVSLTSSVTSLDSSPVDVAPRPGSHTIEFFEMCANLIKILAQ
T1 sequence (P80385 whole entry partner): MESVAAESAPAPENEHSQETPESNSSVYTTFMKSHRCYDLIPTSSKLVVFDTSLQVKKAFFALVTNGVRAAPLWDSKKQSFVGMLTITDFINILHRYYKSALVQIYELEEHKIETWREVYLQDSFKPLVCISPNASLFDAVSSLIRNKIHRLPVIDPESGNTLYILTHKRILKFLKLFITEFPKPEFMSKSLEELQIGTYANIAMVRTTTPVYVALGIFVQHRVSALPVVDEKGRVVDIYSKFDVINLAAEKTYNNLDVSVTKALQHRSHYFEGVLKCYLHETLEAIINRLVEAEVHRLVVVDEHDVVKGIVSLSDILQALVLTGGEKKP

OC[C@H]1O[C@H](OC[C@H]2OC(O)[C@H](O)[C@@H](O)[C@@H]2O)[C@H](O)[C@@H](O)[C@@H]1O (stereo partly shown) [isomaltose]
inhibition of W100G/W133A mutant: not
